The target of the test is T1, human LPA1 (Homo sapiens, UniProt Q92633).
T1 construct: expressed in transfected cells; host or cells: Chinese hamster ovary (CHO) cells
In words: LPA1 functional antagonist assay (calcium flux). It is filed as cell-based. The note with it: CHO cells overexpressing human LPA1; inhibition of calcium flux induced by 10 nM LPA; read-out: hLPA1 IC50. A digest of the protocol: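 Dye-loaded CHO cells overexpressing human LPA1 (30 min, 37 °C) were preincubated 20 min at room temperature with compound (0.08 nM–5 μM; 0.5% DMSO; HBSS, 20 mM HEPES, 0.1% fatty-acid-free BSA), then stimulated with 10 nM LPA. IC50 is the concentration inhibiting 50% of LPA-induced calcium flux, from a 4-parameter logistic fit.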
(Calcium assays in cells follow changes in intracellular calcium, usually with a dye or a luminescent sensor.)

T1 sequence (Q92633 whole entry): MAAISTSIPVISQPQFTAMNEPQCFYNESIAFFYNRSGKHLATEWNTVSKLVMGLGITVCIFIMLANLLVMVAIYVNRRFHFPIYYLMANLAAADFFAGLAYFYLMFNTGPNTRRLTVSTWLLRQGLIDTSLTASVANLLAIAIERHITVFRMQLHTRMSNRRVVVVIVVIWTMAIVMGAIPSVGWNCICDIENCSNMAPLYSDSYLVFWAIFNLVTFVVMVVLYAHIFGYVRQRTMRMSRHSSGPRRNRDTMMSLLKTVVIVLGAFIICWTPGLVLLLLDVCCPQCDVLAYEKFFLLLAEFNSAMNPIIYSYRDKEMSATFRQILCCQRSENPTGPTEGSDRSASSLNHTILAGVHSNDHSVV

Take `Cc1nc(-c2nnn(C)c2COc2cc(OC(C)C)ncn2)ccc1O[C@H]1CCC[C@H](C(=O)O)C1` [Example 290]: the IC50 – broadly, the concentration that gives 50% inhibition – came to 30 nM.

In the case of `COc1ncnc(OCc2c(-c3ccc(O[C@H]4CCC[C@H](C(=O)O)C4)c(C)n3)nnn2C)c1C` [Example 291], the half-maximal inhibitory concentration (IC50) is 3280 nM.

With `Cc1nc(-c2nnn(C)c2COc2ncnc(OC3CC3)c2C)ccc1O[C@H]1CCC[C@H](C(=O)O)C1` [Example 292], the IC50 is 390 nM.

On to `CCc1ncnc(OCc2c(-c3ccc(O[C@H]4CCC[C@H](C(=O)O)C4)c(C)n3)nnn2C)c1C` [Example 293], for which the IC50 turned out to be 78 nM.

As for `CCCc1cc(OCc2c(-c3ccc(O[C@H]4CCC[C@H](C(=O)O)C4)c(C)n3)nnn2C)ncn1` [Example 294], the IC50 came out at 85 nM.

With `Cc1nc(-c2nnn(C)c2COc2cc(C(F)(F)F)ncn2)ccc1O[C@H]1CCC[C@H](C(=O)O)C1` [Example 295], the IC50 was 21 nM.

Take `Cc1nc(-c2nnn(C)c2COc2cc(C(F)F)ncn2)ccc1O[C@H]1CCC[C@H](C(=O)O)C1` [Example 296]: the concentration for half-maximal inhibition (IC50) was found to be 16 nM.

Consider `[2H]C([2H])([2H])Oc1cc(OCc2c(-c3ccc(O[C@H]4CCC[C@H](C(=O)O)C4)c(C)n3)nnn2C)ncn1` [Example 297], for which the IC50 is 16 nM.

Turning to `Cc1nc(-c2nnn(C)c2COc2cc(N3CCCC3)ncn2)ccc1O[C@H]1CCC[C@H](C(=O)O)C1` [Example 298], the half-inhibitory concentration (IC50) came to 121 nM.

Consider `COCc1cc(OCc2c(-c3ccc(O[C@H]4CCC[C@H](C(=O)O)C4)c(C)n3)nnn2C)ncn1` [Example 299], for which the IC50 turned out to be 67 nM.

Turning to `CCc1cncc(OCc2c(-c3ccc(O[C@H]4CCC[C@H](C(=O)O)C4)c(C)n3)nnn2C)n1` [Example 300], the concentration for half-maximal inhibition (IC50) amounted to 31 nM.

Consider `CCc1ccnc(OCc2c(-c3ccc(O[C@H]4CCC[C@H](C(=O)O)C4)c(C)n3)nnn2C)n1` [Example 301], for which the half-maximal inhibitory concentration (IC50) was found to be 7.9 nM.

For the compound `Cc1nc(-c2nnn(C)c2COc2nccc(C3CC3)n2)ccc1O[C@H]1CCC[C@H](C(=O)O)C1` [Example 302], the half-maximal inhibitory concentration (IC50) amounted to 7.5 nM.

For `Cc1nc(-c2nnn(C)c2COc2cc(NC3CC3)ncn2)ccc1O[C@H]1CCC[C@H](C(=O)O)C1` [Example 303], the half-maximal inhibitory concentration (IC50) is 64 nM.

Turning to `Cc1nc(-c2nnn(C)c2COc2cc(Cl)ncn2)ccc1O[C@H]1CCC[C@H](C(=O)O)C1` [Example 304], the IC50 was determined as 66 nM.

For the compound `Cc1nc(-c2nnn(C)c2COc2nccc(C(F)(F)F)n2)ccc1O[C@H]1CCC[C@H](C(=O)O)C1` [Example 305], the half-maximal inhibitory concentration (IC50) came to 11 nM.

`CCc1nccc(OCc2c(-c3ccc(O[C@H]4CCC[C@H](C(=O)O)C4)c(C)n3)nnn2C)n1` [Example 306]: the IC50 was found to be 36 nM.

For the compound `COc1cncc(OCc2c(-c3ccc(O[C@H]4CCC[C@H](C(=O)O)C4)c(C)n3)nnn2C)n1` [Example 307], the IC50 came to 2990 nM.

As for `Cc1nc(-c2nnn(C)c2COc2ccnc(C(F)F)c2)ccc1O[C@H]1CCC[C@H](C(=O)O)C1` [Example 308], the IC50 was determined as 60 nM.

Regarding `COc1cncc(OCc2c(-c3ccc(O[C@H]4CCC[C@H](C(=O)O)C4)c(C)n3)nnn2C)c1` [Example 309], the concentration for half-maximal inhibition (IC50) was 3240 nM.

On to `Cc1nc(-c2nnn(C)c2COc2nccc(C(F)F)n2)ccc1O[C@H]1CCC[C@H](C(=O)O)C1` [Example 310], for which the IC50 is 17 nM.

For `CCc1ncnc(OCc2c(-c3ccc(O[C@H]4CCC[C@H](C(=O)O)C4)c(C)n3)nnn2C)n1` [Example 311], the half-maximal inhibitory concentration (IC50) stood at 44 nM.

`Cc1nc(-c2nnn(C)c2CNc2cc(C(F)(F)F)ncn2)ccc1O[C@H]1CCC[C@H](C(=O)O)C1` [Example 312]: the half-inhibitory concentration (IC50) is 139 nM.

As to `Cc1nc(-c2nnn(C)c2COc2cc(-c3ccc(F)cc3)ncn2)ccc1O[C@H]1CCC[C@H](C(=O)O)C1` [Example 313], the IC50 turned out to be 41 nM.

For `Cc1nc(-c2nnn(C)c2COc2cc(-n3cnnc3C)ncn2)ccc1O[C@H]1CCC[C@H](C(=O)O)C1` [Example 314], the 50% inhibitory concentration (IC50) was 416 nM.

On to `Cc1nc(-c2nnn(C)c2COc2cc(C(F)F)ccn2)ccc1O[C@H]1CCC[C@H](C(=O)O)C1` [Example 315], for which the IC50 came to 22 nM.

Turning to `Cc1nc(-c2nnn(C)c2COc2nccc(-c3cnccn3)n2)ccc1O[C@H]1CCC[C@H](C(=O)O)C1` [Example 316], the half-inhibitory concentration (IC50) was determined as 263 nM.

For the compound `Cc1nc(-c2nnn(C)c2COc2nccc(-c3ccccn3)n2)ccc1O[C@H]1CCC[C@H](C(=O)O)C1` [Example 317], the concentration for half-maximal inhibition (IC50) amounted to 72 nM.

Regarding `CCc1cc(NCc2c(-c3ccc(O[C@H]4CCC[C@H](C(=O)O)C4)c(C)n3)nnn2C)ncn1` [Example 318], the IC50 was 159 nM.

For the compound `Cc1nc(-c2nnn(C)c2CNc2nccc(COC(C)C)n2)ccc1O[C@H]1CCC[C@H](C(=O)O)C1` [Example 319], the concentration for half-maximal inhibition (IC50) was 57 nM.

`Cc1nc(-c2nnn(C)c2COc2nccc(COC(C)C)n2)ccc1O[C@H]1CCC[C@H](C(=O)O)C1` [Example 320]: the concentration for half-maximal inhibition (IC50) worked out at 90 nM.

Turning to `Cc1nc(-c2nnn(C)c2COc2nccc(COC3CC3)n2)ccc1O[C@H]1CCC[C@H](C(=O)O)C1` [Example 321], the IC50 was determined as 37 nM.

With `Cc1nc(-c2nnn(C)c2CNc2nccc(COC3CC3)n2)ccc1O[C@H]1CCC[C@H](C(=O)O)C1` [Example 322], the IC50 was 44 nM.

For `Cc1nc(-c2nnn(C)c2COc2cc(COC3CC3)ccn2)ccc1O[C@H]1CCC[C@H](C(=O)O)C1` [Example 323], the 50% inhibitory concentration (IC50) turned out to be 71 nM.

With `CCCOCc1ccnc(NCc2c(-c3ccc(O[C@H]4CCC[C@H](C(=O)O)C4)c(C)n3)nnn2C)n1` [Example 324], the IC50 stood at 42 nM.

Turning to `COCc1ccnc(OCc2c(-c3ccc(O[C@H]4CCC[C@H](C(=O)O)C4)c(C)n3)nnn2C)c1` [Example 325], the IC50 was found to be 25 nM.

For `Cc1nc(-c2nnn(C)c2CNc2nccc(-n3cccn3)n2)ccc1O[C@H]1CCC[C@H](C(=O)O)C1` [Example 326], the 50% inhibitory concentration (IC50) was determined as 99 nM.

`Cc1nc(-c2nnn(C)c2COc2nccc(-n3cccn3)n2)ccc1O[C@H]1CCC[C@H](C(=O)O)C1` [Example 327]: the IC50 stood at 335 nM.

Regarding `Cc1nc(-c2nnn(C)c2CN(C)c2ncnc(C(C)C)n2)ccc1O[C@H]1CCC[C@H](C(=O)O)C1` [Example 328, (1S,3S)-3-((6-(5-(((4-Isopropyl-1,3,5-triazin-2-yl)(methyl)amino)methyl)-1-methyl-1H-1,2,3-triazol-4-yl)-2-methylpyridin-3-yl)oxy)cyclohexane-1l-carboxylic acid], the half-inhibitory concentration (IC50) was determined as 211 nM.

For `Cc1nc(-c2nnn(C)c2CNc2cc(OCC(C)C)ncn2)ccc1O[C@H]1CCC[C@H](C(=O)O)C1` [Example 329, (1S,3S)-3-((6-(5-(((6-Isobutoxypyrimidin-4-yl)amino)methyl)-1-methyl-1H-1,2,3-triazol-4-yl)-2-methylpyridin-3-yl)oxy)cyclohexane-1-carboxylicacid], the IC50 was found to be 82 nM.

Regarding `Cc1nc(-c2nnn(C)c2COc2nccc(-c3ccccc3)n2)ccc1O[C@H]1CCC[C@H](C(=O)O)C1` [Example 330, (1S,3S)-3-((2-Methyl-6-(1-methyl-5-(((4-phenylpyrimidin-2-yl)oxy)methyl)-1H-1,2,3-triazol-4-yl)pyridin-3-yl)oxy)cyclohexane-1-carboxylic acid], the IC50 came to 33 nM.

On to `Cc1nc(-c2nnn(C)c2COc2nccc(C(C)(C)C)n2)ccc1O[C@H]1CCC[C@H](C(=O)O)C1` [Example 332], for which the half-maximal inhibitory concentration (IC50) was 29 nM.

For the compound `Cc1nc(-c2nnn(C)c2CNc2ncnc(C(C)C)n2)ccc1O[C@H]1CCC[C@H](C(=O)O)C1` [Example 333], the concentration for half-maximal inhibition (IC50) is 43 nM.

On to `Cc1nc(-c2nnn(C)c2CNc2nccc(OCC3CC3)n2)ccc1O[C@H]1CCC[C@H](C(=O)O)C1` [Example 334], for which the half-inhibitory concentration (IC50) is 19 nM.

As for `Cc1nc(-c2nnn(C)c2CNc2nccc(OCC3(C)CC3)n2)ccc1O[C@H]1CCC[C@H](C(=O)O)C1` [Example 335], the IC50 worked out at 18 nM.

Regarding `Cn1nnc(-c2ccc(O[C@H]3CCC[C@H](C(=O)O)C3)cn2)c1CNc1nccc(OCC2(C)CC2)n1` [Example 336], the IC50 was 28 nM.

As for `Cc1nc(-c2nnn(C)c2CNc2nccc(OCC3(F)CC3)n2)ccc1O[C@H]1CCC[C@H](C(=O)O)C1` [Example 337], the half-maximal inhibitory concentration (IC50) was 112 nM.

Regarding `Cc1nc(-c2nnn(C)c2COc2nccc(N3CCCC3)n2)ccc1O[C@H]1CCC[C@H](C(=O)O)C1` [Example 338], the IC50 was found to be 21 nM.

With `Cc1nc(-c2nnn(C)c2COc2cncc(C(F)(F)F)n2)ccc1O[C@H]1CCC[C@H](C(=O)O)C1` [Example 339], the IC50 turned out to be 99 nM.

`Cc1nc(-c2nnn(C)c2COc2cncc(Oc3ccccc3)n2)ccc1O[C@H]1CCC[C@H](C(=O)O)C1` [Example 340]: the concentration for half-maximal inhibition (IC50) came out at 25 nM.

Regarding `Cc1nc(-c2nnn(C)c2COc2ccnc(C(F)(F)F)n2)ccc1O[C@H]1CCC[C@H](C(=O)O)C1` [Example 341], the IC50 is 16 nM.

On to `Cc1cc(OCc2c(-c3ccc(O[C@H]4CCC[C@H](C(=O)O)C4)c(C)n3)nnn2C)ncn1` [Example 342], for which the 50% inhibitory concentration (IC50) was 118 nM.

For `Cc1nc(-c2nnn(C)c2COc2nccc(N(C)C)n2)ccc1O[C@H]1CCC[C@H](C(=O)O)C1` [Example 343], the 50% inhibitory concentration (IC50) came to 100 nM.

`COc1nccc(OCc2c(-c3ccc(O[C@H]4CCC[C@H](C(=O)O)C4)c(C)n3)nnn2C)n1` [Example 344]: the IC50 is 378 nM.

Consider `Cc1nc(-c2nnn(C)c2COc2nccc(C(C)C)n2)ccc1O[C@H]1CCC[C@H](C(=O)O)C1` [Example 345], for which the IC50 worked out at 9.5 nM.

In the case of `COc1ccnc(OCc2c(-c3ccc(O[C@H]4CCC[C@H](C(=O)O)C4)c(C)n3)nnn2C)n1` [Example 346], the IC50 was 77 nM.

Regarding `CCc1ccnc(OCc2c(-c3ccc(O[C@H]4CCC[C@H](C(=O)O)C4)cn3)nnn2C)n1` [Example 347], the concentration for half-maximal inhibition (IC50) came to 73 nM.

As to `Cn1nnc(-c2ccc(O[C@H]3CCC[C@H](C(=O)O)C3)cn2)c1COc1nccc(C2CC2)n1` [Example 348], the concentration for half-maximal inhibition (IC50) stood at 118 nM.

The record behind these values is patent US11267800B2, “Cyclohexyl acid triazole azines as LPA antagonists” (BRISTOL-MYERS SQUIBB COMPANY, priority 2017, dated 2022).
